Laboratory results reported in patent publication US20090082451A1, “USE OF THYROID HORMONE CONVERSION INHIBITORS” (Trustees of Boston University, priority 2004, published 2009).
Entries after “also recorded” stand apart in the source; their conditions may differ.

Columns and labels:
[1] = test system: human epidermal keratinocytes; assay: Human epidermal keratinocyte proliferation, 3H-thymidine incorporation; assay type: cell-based; settings: overnight incubation; 10 μl of 1.5 mM stock per 500 μl medium; ±SEM
Experimental: (§1) Human keratinocytes were grown in primary culture on a support matrix derived from irradiated fibroblasts. When the cultures reached 40% confluence, the cells were fed basal medium alone for 24 hours and then incubated overnight in medium containing a test substance or sham. The cells were then treated with saturating quantities of ^3H-thymidine (New England Nuclear, Boston, Mass.); DNA was precipitated with 5% perchlorate and relative incorporated thymidine was assessed with a beta counter. Experiments were performed in quadruplicate and averaged. Results reported represent a minimum of three separate quadruplicate experiments.
(§2) The reagents used for tissue culture were iopanoic acid (Sigma, St. Louis, Mo.), sodium ipodate (Fitzgerald Industries International, Flanders, N.J.), and propranolol (Sigma, St. Louis, Mo.). Reagents were dissolved into modestly basic stock solutions to the following final concentrations: 0.025 mM NaOH, 0.2 M NaCl, 1.5 mM reagent. Each experiment used 10 μl of stock reagent (or sham) per 500 μl of medium. For FIGS. 13-18, the “low” concentration is 3 μM for each reagent, and the “high” concentration was 30 μM for each reagent.

[2] = test system: epidermal proliferation; assay: Topical iopanoic acid cream in mice: epidermal thickness and BrdU incorporation; assay type: in vivo, CD-1 mice
Experimental: A topical iopanoic acid (IOP) cream was prepared by mixing IOP (Sigma, St. Louis, Mo.) into a liposome vehicle (Novasome A, IGI inc., New Jersey) previously described (Safer 2001, Safer 2003, Safer 2005). Each mouse received 30 μl of the liposome vehicle applied directly to a 3×3 cm area of shaved skin on the animal's backs. The preparation was applied daily and not removed.
The treatment groups received cream containing 6 mg IOP daily. The control groups were treated with daily application of vehicle alone.
Five week old CD-1 mice were randomized into 2 groups (FIG. 1). The groups had 6 mice each and were evaluated in a crossover study. Each mouse in the crossover study was evaluated twice: once after a 6 mg daily IOP treatment and once after treatment with vehicle alone. Six mice received IOP first followed by a 3 month wash-out/healing completion period. The animals were then evaluated after treatment with topical vehicle alone. Six mice started with vehicle alone and received the IOP treatment after the 3 month wash-out/healing completion period.
All topically treated mice were caged separately to avoid animals receiving doses from their neighbors during grooming. The cream was applied to a midline cephalad region on the animals' backs to minimize the impact of personal grooming on dosing.
Epidermal proliferation was assessed by measuring both epidermal thickness and 5-bromo-2′-deoxyuridine (BrdU, Boehringer Mannheim, Mannheim, Germany) incorporation into DNA. At the completion of the protocols noted, animals were biopsied with full thickness dorsal skin samples were taken. Three hours prior to biopsy, each mouse had received intraperitoneal BrdU as previously described (Safer 2001). Skin samples were fixed in formalin and embedded in paraffin. From each paraffin block, […] sections were made and stained with hematoxylin and eosin (H&E). Epidermal thickness was measured in 10 random locations for each mouse. Additional 5 μm skin histology sections from the above paraffin blocks were stained for BrdU as previously described (Safer 2001). BrdU data are reported as the number of cell nuclei stained/[…] epidermis.

[3] = test system: Human prostate (HPV) cells; assay type: cell-based; settings: overnight incubation; 10 μl of 1.5 mM stock per 500 μl medium; ±SEM
Experimental: as §1, with “prostate (HPV) cells” for “keratinocytes”, “under standard conditions.” for “in primary culture on a support matrix derived from irradiated fibroblasts.”
as §2

[4] = Serum total thyroxine (T4) by radioimmunoassay in topically treated mice; assay type: in vivo, CD-1 mice; settings: mice treated with IOP cream, relative to control mice; listed as IOP
Experimental: Serum total thyroxine levels were measured with a standard radioimmunoassay kit (ICN, Orangeburg, N.Y.). Unlike other thyroid hormone kits which use anti-mouse antibodies, the ICN kit uses anti-rabbit antibodies and avoids spuriously elevated readings in mice. Thyroid hormone levels for mice fall at the low end of the human range so the human standards included in the kit were used.

[5] = test system: Monkey kidney (CV-1) cells; assay: Monkey kidney cell proliferation, 3H-thymidine incorporation; assay type: cell-based; settings: overnight incubation; 10 μl of 1.5 mM stock per 500 μl medium; ±SEM
Experimental: as §1, with “Monkey kidney (CV-1) cells” for “Human keratinocytes”, “under standard conditions.” for “in primary culture on a support matrix derived from irradiated fibroblasts.”
as §2

[6] = test system: Opossum kidney (OK) cells; assay: Opossum kidney cell proliferation, 3H-thymidine incorporation; assay type: cell-based; settings: overnight incubation; 10 μl of 1.5 mM stock per 500 μl medium; ±SEM
Experimental: as §1, with “Opossum kidney (OK) cells” for “Human keratinocytes”, “under standard conditions.” for “in primary culture on a support matrix derived from irradiated fibroblasts.”
as §2

[7] = topical cream, 6 mg IOP daily, vs vehicle, p<0.05

SMILES	inhibition of proliferation of human epidermal keratinocytes relative to control cultures [1] [%]	epidermal proliferation ([2]; Group 1 mice: control vehicle first, then IOP (FIG. 2))	epidermal proliferation ([2]; Group 2 mice: IOP first, then control vehicle (FIG. 3))	less epidermal BrdU staining than control mice [2, 7] [%]	thinner epidermis than control mice [2, 7] [%]	inhibition of proliferation of human prostate cells relative to control cultures [3] [%]	serum T4 levels [4]	inhibition of proliferation of monkey kidney cells relative to control cultures [5] [%]	inhibition of proliferation of opossum kidney cells relative to control cultures [6] [%]
CCC(Cc1c(I)cc(I)c(N)c1I)C(=O)O (centres unmarked) [iopanoic acid]	61±9	significantly diminished	significantly diminished	30	20	26±4	remained steady; also recorded: not changed	–	–
O=C(NCC(O)CO)c1c(I)c(C(=O)NCC(O)CO)c(I)c(N(CCO)C(=O)CO)c1I (centres unmarked) [ioversol]	–	–	–	–	–	22	–	–	–
CN(C)/C=N/c1c(I)cc(I)c(CCC(=O)[O-])c1I.[Na+] [ipodate sodium]	14±6	–	–	–	–	30±5	–	–	–
CC(C)NCC(O)COc1cccc2ccccc12 (centres unmarked) [propranolol]	62±3	–	–	–	–	84±8	–	82±5	88±10
